In article PMC5037758, “Affinity of ^nat/68Ga-Labelled Curcumin and Curcuminoid Complexes for β-Amyloid Plaques: Towards the Development of New Metal-Curcumin Based Radiotracers” (International Journal of Molecular Sciences, 2016):

Columns and labels:
amyloid β-protein (1–40) [1] = target: T1, amyloid β-protein (1–40) (Homo sapiens, UniProt P05067); assay: direct radioligand binding to fibrils with displacement by curcumin; fluorescence microscopy
T1 construct: gene APP; Aβ(1–40) synthetic amyloid fibrils
T1 sequence (P05067 672-711): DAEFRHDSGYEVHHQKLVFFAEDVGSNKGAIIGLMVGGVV

amyloid β-protein (1–40) [2] = target: T1, amyloid β-protein (1–40); assay: direct radioligand binding to fibrils (not displaced by curcumin, lower specificity); fluorescence microscopy

| Substance | % bound (amyloid β-protein (1–40) [1]) | % bound (amyloid β-protein (1–40) [2]) |
| --- | --- | --- |
| ^68Ga(CUR)2^+ | > 90 % bound |  |
| ^68Ga(DAC)2^+ | > 90 % bound |  |
| ^68Ga(bDHC)2^+ |  | ~ 50 % bound |
